Measured values reported in US5003011A, “Therapeutic decapeptides” (The Administrators of the Tulane Educational Fund, priority 1989, dated 1991).
Numbered stars: 1 amine (or outer) side, 2 acyl side, 3 side chain; on linkers, the order of the positions; unused ones are H or OH. Square brackets hold non-standard residues; d marks the D form. Peptide text beside a SMILES is read from it. X1 = O=C([C@@H](CCCCNC1CCCC1)N[*:1])[*:2]; X2 = O=C([C@H](CCCCNC1CCCC1)N[*:1])[*:2]; d2Nal = N[C@H](Cc1ccc2ccccc2c1)C(=O)O

Experiment: Body weight ratio (FBW/IBW) in the MCF-7 subrenal capsule assay
Type: in vivo, mice
Excerpt: Female CDF-1 mice were implanted with a human mammary tumor (MCF-7) underneath the kidney capsules on day 0. […] The negative control group received vehicle only and the positive control was ovariectomized on day 0.

[1] = Table 2, 100 μg/inj. s.c., QDO5

## CC(C)C[C@H](NC(=O)[C@@H](Cc1c[nH]c2ccccc12)NC(=O)[C@H](Cc1ccc(O)cc1)NC(=O)[C@H](CO)NC(=O)[C@H](Cc1c[nH]c2ccccc12)NC(=O)[C@H](Cc1c[nH]cn1)NC(=O)[C@@H]1CCC(=O)N1)C(=O)N[C@@H](CCCNC(=N)N)C(=O)N1CCC[C@H]1C(=O)NCC(N)=O [BIM-21003, reference compound]
[1]
  FBW/IBW = Final Body Weight/Initial Body Weight: 1.04

## CC(C)C[C@H](NC(=O)[C@@H](Cc1ccccc1)NC(=O)[C@H](Cc1ccc(O)cc1)NC(=O)[C@H](CO)NC(=O)[C@H](Cc1c[nH]c2ccccc12)NC(=O)[C@H](Cc1c[nH]cn1)NC(=O)[C@@H]1CCC(=O)N1)C(=O)N[C@@H](CCCNC(=N)N)C(=O)N1CCC[C@H]1C(=O)NCC(N)=O [BIM-21006, reference compound]
[1]
  FBW/IBW = Final Body Weight/Initial Body Weight: 0.99

## CC(=O)N[C@H](Cc1ccc2ccccc2c1)C(=O)N[C@H](Cc1ccc(Cl)cc1)C(=O)N[C@H](Cc1ccccc1)C(=O)N[C@@H](CO)C(=O)N[C@@H](Cc1ccc(O)cc1)C(=O)N[C@H](CCCNC(=N)N)C(=O)N[C@@H](Cc1ccccc1)C(=O)N[C@@H](CCCNC(=N)N)C(=O)N1CCC[C@H]1C(=O)N[C@H](C)C(N)=O [BIM-21009] (HELM PEPTIDE1{[ac].[O=C([C@@H](Cc1ccc2ccccc2c1)N[*:1])[*:2]].[O=C([C@@H](Cc1ccc(Cl)cc1)N[*:1])[*:2]].[dF].S.Y.[dR].F.R.P.[dA].[am]}$$$$V2.0)
Table 2, 1 μg/inj. s.c., QDO5
  FBW/IBW = Final Body Weight/Initial Body Weight: 0.98
Table 2, 10 μg/inj. s.c., QDO5
  FBW/IBW = Final Body Weight/Initial Body Weight: 0.99

## CC(=O)N[C@H](Cc1ccc2ccccc2c1)C(=O)N[C@H](Cc1ccccc1)C(=O)N[C@H](Cc1ccccc1)C(=O)N[C@@H](CO)C(=O)N[C@@H](Cc1ccc(O)cc1)C(=O)N[C@H](CCCNC(=N)N)C(=O)N[C@@H](Cc1ccccc1)C(=O)N[C@@H](CCCNC(=N)N)C(=O)N1CCC[C@H]1C(=O)N[C@H](C)C(N)=O [BIM-21011] (HELM PEPTIDE1{[ac].[O=C([C@@H](Cc1ccc2ccccc2c1)N[*:1])[*:2]].[dF].[dF].S.Y.[dR].F.R.P.[dA].[am]}$$$$V2.0)
Table 2, 1 μg/inj. s.c., QDO5
  FBW/IBW = Final Body Weight/Initial Body Weight: 0.98
Table 2, 10 μg/inj. s.c., QDO5
  FBW/IBW = Final Body Weight/Initial Body Weight: 0.99
Table 2, 15 μg/inj. s.c., QDO5
  FBW/IBW = Final Body Weight/Initial Body Weight: 0.99

## CC(=O)N[C@H](Cc1ccc2ccccc2c1)C(=O)N[C@H](Cc1ccc(Cl)cc1)C(=O)N[C@H](Cc1c[nH]c2ccccc12)C(=O)N[C@@H](CO)C(=O)N[C@@H](Cc1ccc(O)cc1)C(=O)N[C@H](CCCNC(=N)N)C(=O)N[C@@H](Cc1ccccc1)C(=O)N[C@@H](CCCNC(=N)N)C(=O)N1CCC[C@H]1C(=O)N[C@H](C)C(N)=O [BIM-21023] (HELM PEPTIDE1{[ac].[O=C([C@@H](Cc1ccc2ccccc2c1)N[*:1])[*:2]].[O=C([C@@H](Cc1ccc(Cl)cc1)N[*:1])[*:2]].[dW].S.Y.[dR].F.R.P.[dA].[am]}$$$$V2.0)
Table 3, 25 μg/inj. s.c., QDO5
  FBW/IBW = Final Body Weight/Initial Body Weight: 1.01

## CC(=O)N[C@H](Cc1ccc2ccccc2c1)C(=O)N[C@H](Cc1ccccc1)C(=O)N[C@H](Cc1ccccc1)C(=O)N[C@@H](CO)C(=O)N[C@@H](Cc1ccccc1)C(=O)N[C@H](CCCNC(=N)N)C(=O)N[C@@H](CC(C)C)C(=O)N[C@@H](CCCNC(=N)N)C(=O)N1CCC[C@H]1C(=O)N[C@H](C)C(N)=O [BIM-21024] (HELM PEPTIDE1{[ac].[O=C([C@@H](Cc1ccc2ccccc2c1)N[*:1])[*:2]].[dF].[dF].S.F.[dR].L.R.P.[dA].[am]}$$$$V2.0)
Table 3, 25 μg/inj. s.c., QDO5
  FBW/IBW = Final Body Weight/Initial Body Weight: 1.00

## CC(=O)N[C@H](Cc1ccc2ccccc2c1)C(=O)N[C@H](Cc1ccccc1)C(=O)N[C@H](Cc1ccccc1)C(=O)N[C@@H](CO)C(=O)N[C@@H](Cc1ccc(O)cc1)C(=O)N[C@H](CCCCNCc1ccccc1)C(=O)N[C@@H](Cc1ccccc1)C(=O)N[C@@H](CCCNC(=N)N)C(=O)N1CCC[C@H]1C(=O)N[C@H](C)C(N)=O [BIM-21025] (HELM PEPTIDE1{[ac].[O=C([C@@H](Cc1ccc2ccccc2c1)N[*:1])[*:2]].[dF].[dF].S.Y.[O=C([C@@H](CCCCNCc1ccccc1)N[*:1])[*:2]].F.R.P.[dA].[am]}$$$$V2.0)
Table 3, 25 μg/inj. s.c., QDO5
  FBW/IBW = Final Body Weight/Initial Body Weight: 0.97

## CC(=O)N[C@H](Cc1ccc2ccccc2c1)C(=O)N[C@H](Cc1ccccc1)C(=O)N[C@H](Cc1ccccc1)C(=O)N[C@@H](CO)C(=O)N[C@@H](Cc1ccc(O)cc1)C(=O)N[C@H](CCCCNC1CCCC1)C(=O)N[C@@H](Cc1ccccc1)C(=O)N[C@@H](CCCCNC1CCCC1)C(=O)N1CCC[C@H]1C(=O)N[C@H](C)C(N)=O [BIM-21026] (Ac-[d2Nal][dF][dF]SY[X1]F[X2]P[dA]-NH2)
Table 3, 25 μg/inj. s.c., QDO5
  FBW/IBW = Final Body Weight/Initial Body Weight: 1.01

## CC(C)[C@@H]1NC(=O)[C@H](CCCCN)NC(=O)[C@@H](Cc2c[nH]c3ccccc23)NC(=O)[C@H](Cc2ccc(O)cc2)NC(=O)[C@@H](NC(=O)[C@H](N)Cc2ccc3ccccc3c2)CSSC[C@@H](C(=O)N[C@H](C(N)=O)[C@@H](C)O)NC1=O [BIM-23014C, reference compound]
Table 3, 2 μg/inj. s.c., QDO5, b.i.d.
  FBW/IBW = Final Body Weight/Initial Body Weight: 1.00
Table 3, 10 μg/inj. s.c., QDO5, b.i.d.
  FBW/IBW = Final Body Weight/Initial Body Weight: 0.99
Table 3, 50 μg/inj. s.c., QDO5, b.i.d.
  FBW/IBW = Final Body Weight/Initial Body Weight: 0.98
